According to patent EP0189629A1, “Method of treatment of viral diseases in plants utilizing ribavirin” (VIRATEK, INC., priority 1985, dated 1986):
Blank lines part the entries; values can stand above or below the compound they belong to.

Assays:
Solubility = type: physicochemical; details: for solubility in other solvents: alcohol (5-15% by volume) and water, DMF (5-25%) and water, DMSO (5-25%) and water, DMSO alone
Description: Another potential use of Ribavirin is to eliminate viruses or maintain plant tissues in a virus-free state during routine propagation techniques that are presently being developed. One example is the use of encapsulated somatic embryos to propagate somatic tissues to prevent sexual variation or the need for more extensive plant breeding. Ribavirin may be especially useful in maintaining virus-free plants by its application to somatic embryos. Certain plants can be propagated asexually precluding genetic changes in progeny which might otherwise occur by sexual propagation from seed. Treatment of somatic embryos with Ribavirin prior to encapsulation will preserve plant progeny in a virus--free state. The compound could also be used in combination with newly developed plant genetic engineering procedures where the Ribavirin could be incorporated into normal propagation procedures. […] The compounds are also soluble in solutions of alcohol (5-15% by volume) and water, dimethylformamide (DMF) (5-25%) and water, dimethyl sulfoxide (DMSO) (5-25%) and water and dimethyl sulfoxide alone.

TMV [1] = assay: TMV multiplication in leaf cells, treatment soon after inoculation; type: cell-based; details: treatment began soon after inoculation
TMV [2] = assay: TMV multiplication in inoculated unorganized callus cells; type: cell-based; details: callus cells inoculated with TMV, single agent
Lilium = assay: Lily meristem culture, meristem formation and bulb growth; type: cell-based
[3] = tested on: protocorms of healthy Cymbidium; assay: Growth of healthy Cymbidium protocorms on medium containing Ribavirin; type: cell-based
Protocol: Meristems or protocorms of Cymbidium were cultured on liquid or solid (0.7% agar) KNUDSON C medium, as modified for orchids by MOREL.

potato virus Y = assay: In vitro culture of meristems and other explants of potato virus Y-infected potato; type: cell-based
Protocol: (§1) Although the proportion of healthy plants obtained by this technique is usually high, it requires complex media and the rate of regrowth of meristematic explants is low. Menstems were cultured on MURASHIGE and SKOOG medium- supplanted with vitamin 85, and with growth substances. Other explants (shoots, fragment of shoots, stem--fragments) were grown on MURASHIGE and SKOOG medium without addition of growth substances. The presence of potato virus Y in plant material was controlled before and after in vitro culture, by biological indexing on tobacco test plants, or by serology (ELISA). Results thus obtained confirmed the elimination of potato virus Y from infected plants by meristem culture. […] Cymbidium protocorms infected with odontoglossum ring spot virus were placed for proliferation on liquid KNUDSON C medium containing 0, 10, 25 or 40 ppm of Ribavirin.

TMV [4] = assay: TMV-infected tobacco callus growth and shoot regeneration on medium containing chemical; type: cell-based
[5] = tested on: lily symptomless virus (LSV) and tulip breaking virus (TBV); assay: Lily meristem culture, virus testing by ELISA, immuno-diffusion drop test and electron microscopy; type: cell-based; details: 40.0 uM Ribavirin
Protocol: Other experiments were performed with Lilium Lon- oifiorum "Arai" which has been described as difficult to obtain free of virus, and with Lilium"Enchantment", both containing lily symptomless virus (LSV) and tulip breaking virus (TBV). Meristems, induced on media with or without Ribavirin, were isolated and subsequently cultured on a medium without Ribavirin. […] Leaf samples of the plants were tested for the presence of LSV and TBV by means of ELISA, the immuno-diffusion drop test and electron microscopy.

plant virus groups = assay: Spectrum of activity against plant virus groups and plant viral diseases
[6] = tested on: Odontoglossum ring spot virus (ORSV); assay: ORSV-infected Cymbidium meristem/protocorm culture, ELISA; type: cell-based
Protocol: Odontoglossum ring spot virus (ORSV) - infected Cymbidium mother plants have been regenerated in the presence of Ribavirin. Meristems or protocorms of Cymbidium were cultured on liquid or solid (0.7% agar) KNUDSON C medium, as modified for orchids by MOREL.
as §1

[7] = tested on: orchid strain of tobacco mosaic virus (TMV-0); assay: Cymbidium orchid tissue culture, virus titers by electron micrography and serological test; type: cell-based; details: 30, 100, 300 and 1,000 ppm Ribavirin; 200 ppm DMSO in all treatments
Protocol: Ribavirin concentrations from 30 to 1,000 ppm have been included in tissue culture media in which orchids are being cloned, and used to drench and spray whole orchid plants in a controlled way. Virus titers were determined by transmission electron micrography and ELIZA serological tests. In order to enhance penetration of Ribavirin, 200 ppm of Dimethylsulfoxide - (DMSO) was included in all treatments including controls.

solubility in other solvents (Solubility): also soluble
solubility in water (Solubility): soluble in water
Structure (SMILES): CC(=O)OC[C@H]1O[C@@H](n2cnc(C(N)=O)n2)[C@H](OC(C)=O)[C@@H]1OC(C)=O [2,3,5--triacetyl]

solubility in other solvents (Solubility): also soluble
solubility in water (Solubility): soluble in water
Structure (SMILES): CCCC(=O)OC[C@H]1O[C@@H](n2cnc(C(N)=O)n2)[C@H](O)[C@@H]1O [5'-butyryl]

Structure (SMILES): Nc1ncnc2c1ncn2[C@@H]1O[C@H](CO)[C@@H](O)[C@@H]1O [Adenine Arabinoside]
multiplication of TMV in leaf cells (TMV [1]): effectively inhibited
multiplication of TMV in unorganized callus cells (TMV [2]): neither inhibited

Structure (SMILES): NC(=O)c1ncn([C@@H]2O[C@H](CO)[C@@H](O)[C@H]2O)n1 [Ribavirin, 1-β-D-ribofuranosyl-1,2,4-triazole-3-carboxamide]
bulb growth (Lilium; 400.0 uM): severely reduced
number of adventitiously formed meristems and average bulb weight (Lilium; concentration range 0.0-40.0 uM): not significantly influenced
growth of healthy Cymbidium protocorms ([3]; 50 ppm, after four weeks of culture): became necrotic
growth of healthy Cymbidium protocorms ([3]; media containing 0, 10 or 25 ppm): grew well
multiplication of TMV in leaf cells (TMV [1]): effectively inhibited
regeneration rate in meristem culture (potato virus Y; 10, 25 and 50 ppm, meristems of potato virus Y-infected potato): enhanced the regeneration rate
number of virus-free plants obtained after in vitro culture (potato virus Y; 25 or 50 ppm, shoots, shoot pieces and stem-fragments, three to four weeks): significantly enhanced
phytotoxicity in meristem culture (potato virus Y; virus-inhibiting concentrations, meristem culture of potato virus Y-infected potato): phytotoxicity at virus-inhibiting concentrations
TMV in newly developed tobacco callus or shoots (TMV [4]; callus from TMV-infected pith tissue grown on medium with Ribavirin): still contained TMV
tobacco callus growth and differentiation (TMV [4]; concentration twice that required to inhibit TMV multiplication in leaf disks): grew and differentiated
percentage of plants infected with LSV and/or TBV ([5]; L. "Enchantment"): the effect is less clear
percentage of plants infected with LSV and/or TBV ([5]; L. Lonaiflorum "Arai"): reduced
effectiveness against plant viral diseases (plant virus groups; crops and viruses listed in the 2nd table and the 3rd table): effective
activity against plant virus groups (plant virus groups; potexviruses, potyviruses, closteroviruses, tymoviruses, carlaviruses, cucumoviruses, ilarviruses, tombusviruses, tomato spotted wilt virus, alfalfa mosaic virus): active
sensitivity of plant virus groups to Ribavirin (plant virus groups; tobamovirus and bromovirus groups): only slightly sensitive
multiplication of ORSV in Cymbidium protocorms ([6]; 10 ppm, liquid KNUDSON C medium, three monthly subcultures): did not inhibit
virus concentration in Cymbidium protocorms ([6]; 25 ppm, liquid KNUDSON C medium, monthly subcultures): decreased progressively
ORSV detection by ELISA test ([6]; from the sixth subculture, regeneration in the presence of Ribavirin): no longer detectible
virus status of new growth of Cymbidium tissue cultures [7]: developed virus-free new growth
solubility in other solvents (Solubility): also soluble
solubility in water (Solubility): soluble in water
multiplication of TMV in unorganized callus cells (TMV [2]): neither inhibited
